{"source": "patent US20250205158A1", "about": "“BIODEGRADABLE LIPIDS AND FORMULATIONS FOR DELIVERY OF MRNA” (Massachusetts Institute of Technology, priority 2023, published 2025)", "key": {"mice [1]": {"tested_on": "mice", "test": "Germinal center response after HA mRNA LNP prime dose", "assay_type": "in vivo, BALB/cJ mice", "conditions": "LDLN 8 days following a prime dose"}, "mice [2]": {"tested_on": "mice", "test": "tdTomato mRNA LNP expression in muscle and local draining lymph node (flow cytometry, IHC)"}, "PCSK9 gene": {"tested_on": "PCSK9 gene", "test": "CRISPR-Cas9 gene editing with mRNA LNPs", "assay_type": "in vivo", "conditions": "dose of 3 mg/kg", "description": "The ability of AMG1541 mRNA LNPs to induce CRISPR-Cas9 gene editing was also evaluated (FIGS. 9A-9D)."}, "BALB/c mice": {"tested_on": "BALB/c mice", "conditions": "spike mRNA LNPs on day 0 and day 21, serum day 35", "method": "Briefly, 6-8 week old BALB/c mice were vaccinated with 1 g of mRNA LNPs on day 0 and on day 21, and serum was collected on day 35 to characterize the antibody response to vaccination.\nImmunization studies. […] All LNPs were injected IM in the quadricep with an injection volume of 50 μL with the doses specified in the main text. All vaccination experiments followed a prime-boost dosing regimen with doses given on day 0 and day 21. On day 35, mice were sacrificed, and blood was collected via cardiac puncture and their spleens were collected for further characterization.\nBinding antibody ELISAs. […] Plates were coated overnight at 4° C. by adding 100 μL of a 1 μg/mL antigen solution in 100 mM carbonate buffer, pH 9.6 to each well. The coated plates were then washed with ELISA wash buffer (Biolegend) and blocked for 1 hr. at room temperature (RT) with 150 μL of 1% BSA in PBS. The plate was then washed again, and 100 μL of serially diluted serum samples were then added to the plate and incubated at RT for 1 hr. Next, the plate was washed and the secondary goat anti-mouse IgG, HRP antibody (ThermoFisher) was diluted 1:3,000. 100 μL of this solution added to each well an incubated at RT for 1 hr. After incubation, the plate was washed and 100 μL of TMB chromogen solution (ThermoFisher) was added to each well and incubated for 30 mins. Finally, the HRP reaction was stopped by the addition of 100 μL of 0.5 M H2SO4. The absorbance of each well was immediately read at 450 nm with 600 nm as a reference using an Infinite M200 Pro (Tecan) plate reader. The resultant data were then fit with a 4-PL sigmodal curve and the endpoint titers were taken as the point at which this curve crossed four times the absorbance of the blank wells."}, "[3]": {"test": "LNP characterization (diameter, PDI, % EE)", "assay_type": "physicochemical", "conditions": "LNP formulated with the named lipid", "description": "Representative LNP Characterization Data. The diameter, polydispersity index (PDI), and % EE were characterized for various LNPs.\nLNP characterization. Concentration of mRNA was determined using a Quant-IT Ribogreen assay. LNPs were diluted in either native TE buffer (ThermoFisher) or denaturing TE buffer+0.5% Triton-X 100 (Millipore-Sigma) to measure the “free” and total mRNA, respectively. 100 μL of these unknowns were added to a black 96-well plate. Separately, standard curves ranging from 2 ng/μL-0 ng/μL were prepared in each of these buffers and 100 μL were added to the same 96-well plate. Finally, Quant-IT Ribogreen reagent (ThermoFisher) was diluted 1:200 in TE buffer and 100 μL of this solution was added to each of the wells. The well plate was then mixed at 400 rpm with a plate shaker for 5 mins. and the fluorescence was read with an excitation/emission of 485/535. LNPs were measured in triplicate and standards were measured in duplicate. RNA concentration in each of the unknown wells was calculated by fitting the standard curves with a linear trendline. Encapsulation efficiency (% EE) was calculated according to: […]\nDynamic light scattering and zeta potential measurements were performed using a Malvern Zetasizer system. The reported diameter and PDI were obtained from the cumulants fit of the autocorrelation function. Zeta potential measurements were performed in 0.1×PBS, pH 7.4 and calculated using the Smoluchowski approximation."}, "mice [4]": {"tested_on": "mice", "test": "IFN-γ ELISpot and supernatant cytokines of peptide-stimulated splenocytes after HA mRNA vaccination", "assay_type": "in vivo, BALB/cJ and C57B1/6J mice", "description": "Further experiments to evaluate the dose-sparing potential of AMG1541 were performed for influenza vaccination.^34,35 The immunogenicity of AMG1541 was compared to the clinical benchmark SM-102 by formulating each into LNPs containing hemagglutinin (HA) (A/Tasmania/503/2020 H3N2) mRNA. BALB/cJ mice were vaccinated with […] of these mRNA LNPs and the quality of humoral and cellular immunity following vaccination was evaluated. Enhancing each component of immunity contributes to improving vaccine protection—humoral immunity provides protection against initial infection while cellular immunity improves the clearance of breakthrough infections. […] Male and female mice vaccinated with AMG1541 had 15.8- and 6.8-fold higher endpoint titers, respectively (FIG. 13C). […] Serum cytokines were examined 6 hours after the boost dose to determine whether the enhanced immunogenicity of AMG1541 also led to increased systemic inflammation (FIGS. 20A-20C). […]\nIFN-γ ELISpot. […] Cells were then pelleted, resuspended in PBS+1% BSA, and counted using a countess 3 automated cell counter (ThermoFisher). […]\nLuminex. […] The supernatants from the stimulated splenocytes used for the ELISpot assay were analyzed using Eve Technologies' Mouse High Sensitivity 18-Plex Discovery Assay® (MilliporeSigma, Burlington, Massachusetts, USA) according to the manufacturer's protocol. […]"}, "liver": {"tested_on": "liver", "test": "fLuc mRNA LNP protein expression after intravenous injection", "assay_type": "in vivo", "conditions": "0.25 mg/kg dose, 6 hrs.", "description": "Evaluation of the LNPs via intravenous injection. The lipids were initially evaluated for intravenous protein expression by administration of a 0.25 mg/kg dose […] of fLuc mRNA LNPs."}, "[5]": {"conditions": "muscle, female BALB/cJ mice, IM"}}, "note": "“Also recorded” adds a separate entry of the source."}
{"smiles": "CCCCCC/C=C\\CCCC(=O)OCC(O)CN1CCN(CC(O)COC(=O)CCC/C=C\\CCCCCC)CCN(CC(O)COC(=O)CCC/C=C\\CCCCCC)CCN(CC(O)COC(=O)CCC/C=C\\CCCCCC)CCN(CC(O)COC(=O)CCC/C=C\\CCCCCC)CCN(CC(O)COC(=O)CCC/C=C\\CCCCCC)CC1", "note": "(centres unmarked) [AMG1541]", "values": [{"measurement": "fold higher Ag+ GC B cells than SM-102 treated mice", "setting": "mice [1]", "result": 6.0, "unit": "fold"}, {"measurement": "fold more Fas+GL7+ GC B cells than SM-102 treated mice", "setting": "mice [1]", "result": 4.8, "unit": "fold"}, {"measurement": "expression in muscle fibers (IHC)", "setting": "mice [2]; after IM administration", "result": "tdTomato was expressed in the muscle fibers"}, {"measurement": "protein expression in the LDLN relative to SM-102", "setting": "mice [2]; female BALB/cJ mice, IM", "result": "significantly higher protein expression in APCs"}, {"measurement": "fold higher tdTomato expression in DCs than SM-102", "setting": "mice [2]; [5]", "result": 3.8, "unit": "fold"}, {"measurement": "fold higher tdTomato expression in monocytes than SM-102", "setting": "mice [2]; [5]", "result": 22, "unit": "fold"}, {"measurement": "serum PCSK9 levels", "setting": "PCSK9 gene", "result": "significant reduction in serum PCSK9 levels"}, {"measurement": "antibody titers after vaccination", "setting": "BALB/c mice", "result": "high antibody titers; also recorded: highest antibody titers"}, {"measurement": "EE %", "setting": "[3]; Ribogreen assay", "result": 86.0935, "unit": "%"}, {"measurement": "Diameter (nm)", "setting": "[3]; dynamic light scattering", "result": 85, "unit": "nm"}, {"measurement": "PDI", "setting": "[3]; dynamic light scattering", "result": 0.107}, {"measurement": "cytokines in media from splenocytes stimulated with MHC-binding peptides", "setting": "mice [4]; BALB/cJ mice, HA mRNA, dose=1 μg", "result": "significant upregulation of IL-4, and IL-5 in both male and female mice and IL-10 in female mice"}, {"measurement": "fold more Spot Forming Units (SFU) relative to SM-102", "setting": "mice [4]; IFN-γ ELISpot, MHC-I stimulated splenocytes, female C57B1/6J mice", "result": 6.6, "unit": "fold"}, {"measurement": "protein expression after intravenous fLuc mRNA LNPs", "setting": "liver", "result": "comparable levels of protein expression to lipid MD-1"}]}
